The target in this assay is T1, neurokinin A receptor (receptor NK-2) (Oryctolagus cuniculus, UniProt P79218).
T1 construct: The said preparation consisted of isolated rabbit pulmonary artery; from tissue; host or cells: isolated rabbit pulmonary artery
T1 sequence (P79218 1-384): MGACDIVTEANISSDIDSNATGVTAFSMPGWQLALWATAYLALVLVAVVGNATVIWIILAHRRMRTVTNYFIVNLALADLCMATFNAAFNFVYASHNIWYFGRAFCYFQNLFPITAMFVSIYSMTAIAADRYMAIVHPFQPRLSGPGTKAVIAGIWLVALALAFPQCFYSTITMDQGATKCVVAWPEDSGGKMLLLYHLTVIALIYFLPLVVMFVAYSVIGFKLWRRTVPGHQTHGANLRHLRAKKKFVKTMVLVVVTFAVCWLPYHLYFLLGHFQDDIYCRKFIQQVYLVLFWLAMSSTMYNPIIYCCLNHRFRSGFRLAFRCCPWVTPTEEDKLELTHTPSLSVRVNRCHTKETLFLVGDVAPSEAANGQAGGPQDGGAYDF
The assay can be described thus: inhibition of NKA-induced contraction in isolated rabbit pulmonary artery. The assay is classed as cell-based. As to conditions: compound, NKA 3 nM. On the procedure:
The capacity of the products described in the present invention to interact with the neurokinin A receptor as agonists or antagonists was assessed using a preparation characterized by the fact that the biological response produced by tachykinins and correlated peptides was exclusively determined by the neurokinin A receptor (receptor NK-2). The said preparation consisted of isolated rabbit pulmonary artery affected by a dose-dependentcontraction brought about by tachykinins (Rovero et al., Neuropeptides, 13, 263-270, 1989). The determination of the peptide activity in the test preparation was based on the use of an NKA concentration (3 nM) causing a response equal to 45% of max. response. The peptides considered herein were added to the preparation in growing concentrations. Their activity was assessed as inhibition of response to NKA.

Molecules are shown by their SMILES. Positions of bridges follow the written chain, without caps; N, C: chain ends. Non-standard residues stand in square brackets, D forms with d. Residues, ends and D or L forms follow the SMILES beside them. Dap = NC[C@H](N)C(=O)O

As for `CSCC[C@@H]1NC(=O)[C@H](CC(C)C)NC(=O)[C@@H]2CNC(=O)C[C@H](NC1=O)C(=O)N[C@@H](Cc1c[nH]c3ccccc13)C(=O)N[C@@H](Cc1ccccc1)C(=O)N2` [Compound 1] (cyclo(DWF[Dap]LM); lactam 1-4), the “inhibition of response to neurokinins A” value was 100%.
